In general, IC50 refers to the concentration that inhibits the measured activity by half. Usually inhibition stands for the relative decrease from the control value, in per cent. A low value points to little suppression. The term Ki denotes a dissociation constant, usually derived from enzyme kinetics or from competition with a known ligand.

For test [1], the target named is T1, PI5P4Kα (Homo sapiens, UniProt P48426).
T1 construct: made in house
T1 sequence (P48426 1-406): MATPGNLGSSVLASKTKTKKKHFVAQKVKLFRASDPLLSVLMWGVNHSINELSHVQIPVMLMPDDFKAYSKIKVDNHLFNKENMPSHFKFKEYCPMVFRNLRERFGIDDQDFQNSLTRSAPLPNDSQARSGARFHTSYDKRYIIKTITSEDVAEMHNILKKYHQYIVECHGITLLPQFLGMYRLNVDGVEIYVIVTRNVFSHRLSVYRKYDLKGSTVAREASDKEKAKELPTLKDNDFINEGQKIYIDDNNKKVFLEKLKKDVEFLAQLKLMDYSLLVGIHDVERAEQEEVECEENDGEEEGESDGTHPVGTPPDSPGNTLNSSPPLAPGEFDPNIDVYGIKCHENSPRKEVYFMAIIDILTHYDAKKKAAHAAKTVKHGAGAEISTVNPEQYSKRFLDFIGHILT
The test can be described thus: Miniaturized 1536-well luciferase-coupled bioluminescence (ADP-Glo) PI5P4Kα enzyme activity assay. The format is biochemical. The conditions noted are these: for inhibitory activity against PI5P4Kα (in words): miniaturized assay / LOPAC1280 screen. As to the method: PI5P4Kα (52.4 µL) was added to the lipid reagent (3 mL, described above) to form the enzyme-lipid mixture. First, 2 µL of the enzyme/lipid substrate reagent (2 µg/mL PI5P4Kα final concentration) were dispensed into a white solid-bottom 1536-well plate in columns 1–2, […] using a Flying Reagent Dispenser (FRD, Beckman Coulter, Fullerton, CA, USA). Into columns 3 and 4, 2 µL of a no-lipid and no-enzyme control were dispensed, respectively, where the lipid was replaced by DMSO or the enzyme was replaced by buffer (20 mM Hepes 7.4, 0.1% CHAPS) in the enzyme-lipid mixture. Then, 23 nL of the library compounds and control compounds were transferred by a 1536 pintool (Kalypsys Systems, San Diego, CA, USA) into wells 5–48 and 1–4, respectively. To initiate the reaction, 1 µL of the ATP solution (20 mM Hepes pH 7.4, 60 mM MgCl2, 0.015 mM ATP and 0.1% CHAPS) was added. The final concentration of DMSO in the reaction was 5%. The resulting mixture was incubated at room temperature in the dark for one hour, at which time 2 µL of ADP-Glo reagent 1 were added to stop the reaction and remove any remaining ATP. After a 45-minute incubation, 4 µL of the ADP-Glo reagent 2 were added and allowed to incubate for 30 minutes. The luminescence was then read with a ViewLux high-throughput CCD imager (Perkin Elmer, Waltham, MA, USA). A total of six plates were assayed: one DMSO plate for monitoring the background trends and five concentrations of the LOPAC library (152, 76, 15, 3 and 0.6 µM final assay concentrations, respectively). The top concentration in the assay was attained by two sequential pin transfers of the top concentration of the compound library.
Screening data were corrected and normalized, and concentration-response curves were derived using in-house algorithms. Overall assay performance, including trends in Z’ factor, % CV, and S/B, were recorded. Percent activity was computed after normalization using the median values of the uninhibited enzyme control (32 wells in column 1) and the no-enzyme, or 100% inhibited, control (32 wells, column 4). Additionally, the compound structures were evaluated, and the long chain compounds such as the C18 containing compounds from LOPAC^1280 that are likely to act by disrupting the lipid vesicles were eliminated. Selected actives were procured for re-testing in the primary screening assay and for use in the counter assays and substrate competition assay.
In general terms: ADP-Glo turns the ADP formed in a reaction into a luminescent signal.

Test [2] concerns the target T2, GST-PI5P4Kα (Homo sapiens, UniProt P48426).
T2 construct: made in house
T2 sequence (P48426 1-406): T1 sequence (P48426 1-406)
The experiment in a line: γ-32P-ATP incorporation assay and TLC (radiometric PI5P4K assay). In kind it is biochemical. As for the experimental part: The PI5P4K assay was carried out as described in [10], [22], [23]. Briefly, the kinase reaction was carried out in a total of 50 µL of kinase buffer containing 20 µL of the resuspended lipids, 50 mM HEPES pH 7.4, 10 mM MgCl2, 10 µM non-radiolabeled ATP, 10 µCi [γ-^32P]-ATP with 0.1 µg of GST-PI5P4Kα for 7 minutes at room temperature. The reaction was terminated by adding 20 µL of 4 N HCl. Phosphoinositides were extracted by adding 70 µL of methanol/chloroform (1∶1, vol:vol) mix and subjected to TLC (thin-layer chromatography) separation using heat-activated 2% […] silica gel 60 plates (20 cm×20 cm, EMD Chemicals Inc., Billerica, MA, USA) and a 1-propanol/2 M acetic acid (65∶35, vol:vol) solvent system. The radiolabeled product, PI(4,5)P2, was quantified with a Phosphorimager (Molecular Dynamics, STORM840, GE Healthcare, Waukesha, WI, USA).

The target of test [3] is T1, PI5P4Kα. The experiment in a line: Substrate (ATP) competition assay, miniaturized ADP-Glo PI5P4Kα assay. The conditions noted are these: for dependence of potency on ATP: varied ATP concentration; for mode of inhibition with respect to ATP: IC50 vs [ATP]/Km, seven ATP concentrations. The format is biochemical. The text has this: The experiment was otherwise conducted as described above for the miniaturized ADP-Glo enzyme assay.

Test [4] concerns the target T1, PI5P4Kα. The experiment in a line: Miniaturized 1536-well luciferase-coupled bioluminescence (ADP-Glo) PI5P4Kα enzyme activity assay. The format is biochemical. The conditions noted are these: freshly plated stock of reacquired compound, 11-point titration.
The subject of test [5] is IGF1R. Set-up: method as in PMID 11123895. The conditions noted are these: cited from earlier work.
In test [6] the target is insulin-like growth factor 1 receptor (IGF1R). Also on record: method as in PMID 11123895. The conditions noted are these: cited from earlier work.
Setting [7] is: LOPAC1280 qHTS pilot screen, 5 µM ATP, 75 µM PI5P, 5% DMSO.

“And” between values parts separate entries of the source, which are not always exact repeats. Equal values may be shown once. “Also recorded” adds a separate entry of the source.

`N#C/C(=C\c1ccc(O)c(O)c1)C(=O)NCc1ccccc1` [tyrphostin AG 490] returned a half-maximal inhibitory concentration (IC50) in test [1] (setting [7]) of 89 µM.
The same measure, in the same setting: the result for `COc1cc2ncnc(Nc3cccc(Cl)c3)c2cc1OC` [tyrphostin AG 1478] reads 100 µM.
For `N#CC(C#N)=Cc1ccc(O)c(O)c1` [AG18], the “inhibition of PI5P4Kα (in words)” value in test [2] (tested at 100 µM) is recorded as “not to significantly inhibit”.
`CCCCCCCC/C=C\CCCCCCCC(=O)N[C@@H](CO)Cc1ccc(O)cc1` [OMDM-2, (R)-N-oleoyl Tyrosinol] registered an IC50 in test [1] (weak inhibitors, ADP-Glo assay) of about 30 µM. The “dependence of potency on ATP” value in test [3] is “did not vary with ATP”.
As to `COc1c(C)c2c(c(O)c1C/C=C(\C)CCC(=O)O)C(=O)OC2` [MP, mycophenolate], the “inhibition of PI5P4Kα (in words)” value in test [2] (tested at 100 µM) is “not to significantly inhibit”.
With `N#C/C(=C\c1ccc(O)c(O)c1)C(=O)Nc1ccccc1` [tyrphostin AG 494], half-maximal inhibition in test [1] (setting [7]) (IC50) required 89 µM.
Take `CC(C)(C)c1cc(C=C(C#N)C#N)cc(C(C)(C)C)c1O` [AG17]: the “inhibition of PI5P4Kα (in words)” value in test [2] (tested at 100 µM) is reported as “not to significantly inhibit”.
`N#C/C(=C\c1ccc(O)c(O)c1)C(N)=S` [tyrphostin 47] had an IC50 in test [1] (setting [7]) of 20 µM.
Regarding `N#CC(C#N)=Cc1cc(O)c(O)c(O)c1` [Tyrphostin AG-82], in test [1] (setting [7]), the IC50 was determined as 93 µM. Moreover, in test [1], the “inhibitory activity against PI5P4Kα (in words)” value is on record as “confirmed”. In test [2] (tested at 100 µM), this molecule showed an inhibition at 100 µM of 75%.
As for `N#CC(C#N)=C(N)/C(C#N)=C/c1cc(O)c(O)c(O)c1` [tyrphostin 51], the half-maximal inhibitory concentration (IC50) in test [1] (setting [7]) was 5 µM.
Same read-out and setting: the result for `N#C/C(=C\c1c[nH]c2ccccc12)C(=O)c1ccc(O)c(O)c1` [tyrphostin AG 808] reads 18 µM.
Consider `COc1cc(/C=C(\C#N)C(=O)c2ccc(O)c(O)c2)cc(I)c1O` [I-OMe-AG-538], for which the IC50 in test [1] (setting [7]) was 2.5 µM and 2 µM; in test [4], 1 µM. Also, the “mode of inhibition with respect to ATP” value in test [3] was “competitive inhibition; also recorded: competitive with respect to ATP”; in test [3] (listed as I-OMe tyrphostin AG-538) it was “ATP-competitive inhibitor”. Besides, the inhibitory constant (Ki) in test [3] (seven ATP concentrations 0.25xKm to 10xKm, Km of ATP 5 µM) came to 0.5 µM. Also, the “inhibition of IGF1R in a cell assay (in words)” value in test [5] is “inhibited IGF1R in a similar dose-dependent manner”.
In the case of `N#C/C(=C\c1ccc(O)c(O)c1)C(=O)c1ccc(O)c(O)c1` [tyrphostin AG 538], the IC50 in test [1] (setting [7]) was 14 µM; in test [6], 0.06 µM. Further, in test [5], the “inhibition of IGF1R in a cell assay (in words)” value is “inhibited IGF1R in a similar dose-dependent manner”.
As to `CCCCCCCCCCCCCCCCCCOC[C@H](COP(=O)(O)OCC[N+](C)(C)C)OC` [1-O-Octadecyl-2-O-methyl-sn-glycero-3-phosphorylcholine], in test [1], the “inhibitory activity against PI5P4Kα (in words)” value is on record as “identified as inhibitors”.
Regarding `CCCCCCCC/C=C\CCCCCCCC(N)=O` [oleamide], in test [1] (weak inhibitors, ADP-Glo assay), the 50% inhibitory concentration (IC50) is about 30 µM. Also, the “dependence of potency on ATP” value in test [3] is on record as “did not vary with ATP”.
In the case of `N#CC(C#N)=Cc1ccc(O)c(O)c1` [tyrphostin 23], the midpoint of inhibition in test [1] (setting [7]), the IC50, lay at 45 µM.
The same measure, in the same setting: as for `N#C/C(=C\c1ccc(O)c(O)c1)C(=O)NCCCc1ccccc1` [tyrphostin AG 555], the figure is 50 µM; as for `N#C/C(=C\c1ccc(O)c(O)c1)C(=O)NCCCNC(=O)/C(C#N)=C/c1ccc(O)c(O)c1` [tyrphostin AG 537], 32 µM.
In the case of `CC(C)[C@H](CO)Nc1nc(Nc2ccc(C(=O)O)c(Cl)c2)c2ncn(C(C)C)c2n1` [PVB, purvalanol B], in test [2] (tested at 10 µM due to solubility limitations), the “inhibition of PI5P4Kα (in words)” value was “not to significantly inhibit”.
Regarding `Cc1[nH]c(/C=C2\C(=O)Nc3ccccc32)c(C)c1CCC(=O)O` [SU6668], the “inhibition of PI5P4Kα (in words)” value in test [2] (tested at 100 µM) is listed as “not to significantly inhibit”.
